Laboratory results published in patent US10065990B2, “Cyclic peptide compound, and preparation method, pharmaceutical composition and use thereof” (HANGZHOU GUANYU BIO-MEDICAL CO., LTD, priority 2013, dated 2018).
Read-outs that look alike come from different tables or passages of the source.

Experiments:
[1] = target: T1, HDAC7 (Homo sapiens, UniProt Q8WUI4); experiment: HDAC biochemical activity measurement (fluorescent substrate deacetylation);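 also: fluorogenic deacetylation assay using acetyl-lysine substrate at 20 µM, enzyme and compound incubated 30 min at 37 °C, then developer added, fluorescence read at 360/460 nm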; details: HDAC7; 37° C. 30 minutes
T1 sequence (Q8WUI4 1-952): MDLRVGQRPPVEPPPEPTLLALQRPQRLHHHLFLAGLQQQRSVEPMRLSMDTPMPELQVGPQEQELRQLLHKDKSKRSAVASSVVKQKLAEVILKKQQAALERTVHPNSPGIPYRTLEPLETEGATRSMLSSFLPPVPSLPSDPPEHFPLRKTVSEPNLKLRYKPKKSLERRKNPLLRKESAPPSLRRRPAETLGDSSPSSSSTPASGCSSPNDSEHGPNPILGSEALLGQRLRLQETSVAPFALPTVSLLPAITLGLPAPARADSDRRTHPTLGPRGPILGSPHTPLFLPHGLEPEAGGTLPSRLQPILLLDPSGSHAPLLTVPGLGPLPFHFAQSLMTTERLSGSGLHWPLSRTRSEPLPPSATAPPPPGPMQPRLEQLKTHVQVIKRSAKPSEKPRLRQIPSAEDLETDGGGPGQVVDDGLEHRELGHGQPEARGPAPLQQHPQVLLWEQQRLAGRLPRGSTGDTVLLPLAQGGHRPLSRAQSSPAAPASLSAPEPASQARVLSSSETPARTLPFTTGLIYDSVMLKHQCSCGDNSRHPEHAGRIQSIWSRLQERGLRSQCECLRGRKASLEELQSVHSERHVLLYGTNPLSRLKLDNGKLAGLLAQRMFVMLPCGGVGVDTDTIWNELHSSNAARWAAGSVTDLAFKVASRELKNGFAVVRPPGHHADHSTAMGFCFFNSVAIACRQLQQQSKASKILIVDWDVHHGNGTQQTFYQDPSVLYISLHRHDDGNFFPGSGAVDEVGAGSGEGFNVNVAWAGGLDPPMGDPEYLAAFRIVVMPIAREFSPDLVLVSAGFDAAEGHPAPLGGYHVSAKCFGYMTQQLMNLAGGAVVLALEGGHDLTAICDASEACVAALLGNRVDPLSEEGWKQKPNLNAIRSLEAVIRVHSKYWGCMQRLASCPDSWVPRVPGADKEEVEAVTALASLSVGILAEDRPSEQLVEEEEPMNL

[2] = system: A549 (human lung cancer cells); experiment: MTT cancer cell growth inhibition; type: cell-based; details: Homo sapiens, A549, 72 h, MTT, 72 hours incubation, read-out: GI50 A54
In short: (§1)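 GI50 values come from MTT viability: after 72 h compound exposure (final 10^−5–10^−10 M, three wells each) of cells plated overnight at 1500/well in 10% FBS medium, MTT was given for 4 h. The DMSO-solubilised formazan was then measured at 570 nm.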

[3] = system: BGC-823 (human gastric cancer cells); experiment: MTT cancer cell growth inhibition; type: cell-based; details: Homo sapiens, BGC-823, 72 h, MTT, 72 hours incubation, read-out: GI50 BG
In short: as §1

[4] = system: Bel-7402 (human hepatoma cells); experiment: MTT cancer cell growth inhibition; type: cell-based; details: Homo sapiens, Bel-7402, 72 h, MTT, 72 hours incubation, Bel-7402 cells; read-out: GI50 Bel-7402
In short: as §1

[5] = system: DU145 (human prostate cancer cells); experiment: MTT cancer cell growth inhibition; type: cell-based; details: Homo sapiens, DU-145, 72 h, MTT, 72 hours incubation, read-out: GI50 Du1
In short: as §1

[6] = system: H1975 (non-small cell lung adenocarcinoma); experiment: MTT cancer cell growth inhibition; type: cell-based; details: Homo sapiens, NCI-H1975, 72 h, MTT, 72 hours incubation, H1975 cells; read-out: GI50 H1975
In short: as §1

[7] = system: HCC827 (human non-small cell lung cancer cells); experiment: MTT cancer cell growth inhibition; type: cell-based; details: Homo sapiens, HCC827, 72 h, MTT, 72 hours incubation, HCC827 cells; read-out: GI50 HCC827
In short: as §1

[8] = system: HT1080 (human fibrosarcoma cells); experiment: MTT cancer cell growth inhibition; type: cell-based; details: Homo sapiens, HT-1080, 72 h, MTT, 72 hours incubation, read-out: GI50 HT1
In short: as §1

[9] = system: Hela (human cervical cancer cells); experiment: MTT cancer cell growth inhibition; type: cell-based; details: Homo sapiens, HeLa, 72 h, MTT, 72 hours incubation, read-out: GI50 Hela
In short: as §1

[10] = system: Huh-7 (human hepatoma cells); experiment: MTT cancer cell growth inhibition; type: cell-based; details: Homo sapiens, Huh-7, 72 h, MTT, 72 hours incubation, Huh-7 cells; read-out: GI50 Huh-7
In short: as §1

[11] = system: K562 (human leukemia cells); experiment: MTT cancer cell growth inhibition; type: cell-based; details: Homo sapiens, K562, 72 h, MTT, 72 hours incubation, K562 cells; read-out: GI50 K562
In short: as §1

[12] = system: KBM-5 (human chronic myelogenous leukemia); experiment: MTT cancer cell growth inhibition; type: cell-based; details: Homo sapiens, KBM5, 72 h, MTT, 72 hours incubation, KBM-5 cells; read-out: GI50 KBM-5
In short: as §1

[13] = system: KBM5-T315I (human chronic myelogenous leukemia); experiment: MTT cancer cell growth inhibition; type: cell-based; details: Homo sapiens, 72 h, MTT, 72 hours incubation, KBM5-T315I cells; read-out: GI50 KBM5-T315I
In short: as §1

[14] = system: MCF-7 (human breast cancer cells); experiment: MTT cancer cell growth inhibition; type: cell-based; details: Homo sapiens, MCF7, 72 h, 72 hours incubation, read-out: GI50 MCF
In short: as §1

[15] = system: MDA-MB-231 (breast cancer cells); experiment: MTT cancer cell growth inhibition; type: cell-based; details: Homo sapiens, MDA-MB-231, 72 h, read-out: GI50 MDA-MB-231, MTT, 72 hours incubation, MDA-MB-231 cells
In short: as §1

[16] = system: MOLT-4 (human acute lymphoblastic leukemia cells); experiment: MTT cancer cell growth inhibition; type: cell-based; details: Homo sapiens, MOLT-4, 72 h, MTT, 72 hours incubation, read-out: GI50 Mol
In short: as §1

[17] = system: N-87 (human gastric cancer cells); experiment: MTT cancer cell growth inhibition; type: cell-based; details: Homo sapiens, 72 h, MTT, 72 hours incubation, N-87 cells; read-out: GI50 N-87
In short: as §1

[18] = system: PANC-1 (Pac-1, human pancreatic cancer cells); experiment: MTT cancer cell growth inhibition; type: cell-based; details: Homo sapiens, PANC-1, 72 h, MTT, 72 hours incubation, read-out: GI50 PAN
In short: as §1

[19] = system: SGC-7901 (human gastric cancer cells); experiment: MTT cancer cell growth inhibition; type: cell-based; details: Homo sapiens, SGC-7901, 72 h, MTT, 72 hours incubation, SGC-7901 cells; read-out: GI50 SGC-7901
In short: as §1

[20] = system: U937 (human leukemia cells); experiment: MTT cancer cell growth inhibition; type: cell-based; details: Homo sapiens, U-937, 72 h, MTT, 72 hours incubation, read-out: GI50 U93
In short: as §1

[21] = system: lncap (prostate cancer cells); experiment: MTT cancer cell growth inhibition; type: cell-based; details: Homo sapiens, LNCaP, 72 h, MTT, 72 hours incubation, read-out: GI50 lnca
In short: as §1

Compound | IC50 HDAC7 [1] | GI50 [2] | GI50 [3] | GI50 [4] | GI50 [5] | GI50 [6] | GI50 [7] | GI50 [8] | GI50 [9] | GI50 [10] | GI50 [11] | GI50 [12] | GI50 [13] | GI50 [14] | GI50 [15] | GI50 [16] | GI50 [17] | GI50 [18] | GI50 [19] | GI50 [20] | further results
C/C=C1\NC(=O)c2cc(F)cc(n2)CNC(=O)C[C@@H](/C=C/CCS)OC(=O)[C@H](C)NC1=O [Compound 113] | no activity | 60 nM | 70 nM | 34 nM | 50 nM | 24 nM | 48 nM | 100 nM | 80 nM | 21 nM | 47 nM | 36 nM | 51 nM | 50 nM | 31 nM | 100 nM | 42 nM | 70 nM | 95 nM | 60 nM | GI50 [21]: 80 nM
C/C=C1\NC(=O)c2ncc(F)c(n2)CNC(=O)C[C@@H](/C=C/CCSC(C)=O)OC(=O)[C@H](C(C)C)NC1=O [Compound 97] | no activity | 50 nM | 30 nM | 59 nM | 10 nM | 42 nM | 39 nM | 70 nM | 90 nM | 13 nM | 29 nM | 93 nM | 26 nM | 30 nM | 31 nM | 20 nM | 31 nM | 70 nM | 24 nM | 30 nM | GI50 [21]: 20 nM
C/C=C1\NC(=O)c2cccc(n2)CNC(=O)C[C@@H](/C=C/CCS)OC(=O)[C@H](Cc2cccc3ccccc23)NC1=O [Compound 123] | no activity | 60 nM | 40 nM | 27 nM | 60 nM | 21 nM | 69 nM | 90 nM | 90 nM | 35 nM | 36 nM | 68 nM | 67 nM | 60 nM | 39 nM | 90 nM | 62 nM | 40 nM | 51 nM | 60 nM | GI50 [21]: 90 nM

Continued, in another order:

IC50 HDAC7 [1] | GI50 [2] | GI50 [3] | GI50 [4] | GI50 [5] | GI50 [6] | GI50 [7] | GI50 [8] | GI50 [9] | GI50 [10] | GI50 [11] | GI50 [12] | GI50 [13] | GI50 [14] | GI50 [15] | GI50 [16] | GI50 [17] | GI50 [18] | GI50 [19] | GI50 [20] | Compound | further results
no activity | 20 nM | 30 nM | 52 nM | 30 nM | 37 nM | 52 nM | 50 nM | 80 nM | 35 nM | 35 nM | 86 nM | 24 nM | 20 nM | 35 nM | 30 nM | 38 nM | 50 nM | 28 nM | 30 nM | C/C=C1\NC(=O)c2cc(F)cc(n2)CNC(=O)C[C@@H](/C=C/CCSC(C)=O)OC(=O)[C@H](CCCCN)NC1=O [Example 73] | GI50 [21]: 30 nM
no activity | – | – | 63 nM | – | 31 nM | 57 nM | – | – | 47 nM | 79 nM | 99 nM | 43 nM | – | 45 nM | – | 38 nM | – | 16 nM | – | C/C=C1\NC(=O)c2nc(ccc2SC)CNC(=O)C[C@@H](/C=C/CCSC(C)=O)OC(=O)[C@H](Cc2cccc3ccccc23)NC1=O [Compound 198] | GI50 ([2]; A549 cells): 50 nM; GI50 ([3]; BGC-823 cells): 70 nM; GI50 ([5]; DU145 cells): 50 nM; GI50 ([8]; HT1080 cells): 20 nM; GI50 ([9]; Hela cells): 30 nM; GI50 ([14]; MCF-7 cells): 110 nM; GI50 ([16]; MOLT-4 cells): 20 nM; GI50 ([18]; PANC-1 cells): 30 nM; GI50 ([20]; U937 cells): 50 nM; GI50 ([21]; lncap cells): 90 nM
no activity | – | – | 43 nM | – | 26 nM | 96 nM | – | – | 88 nM | 37 nM | 49 nM | 57 nM | – | 38 nM | – | 62 nM | – | 37 nM | – | C/C=C1\NC(=O)c2ccc(SC)c(n2)CNC(=O)C[C@@H](/C=C/CCSC=O)OC(=O)[C@H](C(C)C)NC1=O [Compound 170] | GI50 ([2]; A549 cells): 60 nM; GI50 ([3]; BGC-823 cells): 20 nM; GI50 ([5]; DU145 cells): 20 nM; GI50 ([8]; HT1080 cells): 50 nM; GI50 ([9]; Hela cells): 30 nM; GI50 ([14]; MCF-7 cells): 60 nM; GI50 ([16]; MOLT-4 cells): 30 nM; GI50 ([18]; PANC-1 cells): 50 nM; GI50 ([20]; U937 cells): 90 nM; GI50 ([21]; lncap cells): 70 nM
no activity | – | – | 53 nM | – | 39 nM | 16 nM | – | – | 64 nM | 62 nM | 35 nM | 53 nM | – | 51 nM | – | 47 nM | – | 51 nM | – | C/C=C1\NC(=O)c2cc(SC)cc(n2)CNC(=O)C[C@@H](/C=C/CCSC(=O)CCCCCCC)OC(=O)[C@H](C(C)C)NC1=O [Compound 148] | GI50 ([2]; A549 cells): 20 nM; GI50 ([3]; BGC-823 cells): 40 nM; GI50 ([5]; DU145 cells): 50 nM; GI50 ([8]; HT1080 cells): 80 nM; GI50 ([9]; Hela cells): 40 nM; GI50 ([14]; MCF-7 cells): 50 nM; GI50 ([16]; MOLT-4 cells): 80 nM; GI50 ([18]; PANC-1 cells): 40 nM; GI50 ([20]; U937 cells): 20 nM; GI50 ([21]; lncap cells): 40 nM
